Measured values as given in the supplement of paper PMC10307832.

Tests used:
Experiment in all cases: relative viability (nuclei count vs DMSO), 5 days (fraction); higher = more cells survive
NCI-H1793 = tested on: NCI-H1793
Summary of the method: (§1)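 Dosing by pin tool came one day after lung cancer cell lines were seeded in 1536-well plates, using either one drug or a fixed anchor-drug dose plus five library-drug doses (not always all listed) in √10 steps. After 5 days, nuclei were counted on 4× images. Relative viability is treated-well nuclei count divided by vehicle-well nuclei count, and values are medians of duplicate plates.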

SW 900 = tested on: SW 900
Summary of the method: as §1

NCI-H520 = tested on: NCI-H520
Summary of the method: as §1

H3255 = tested on: H3255
Summary of the method: as §1

NCI-H2170 = tested on: NCI-H2170
Summary of the method: as §1

NCI-H2023 = tested on: NCI-H2023
Summary of the method: as §1

PC-14 = tested on: PC-14
Summary of the method: as §1

NCI-H647 = tested on: NCI-H647
Summary of the method: as §1

NCI-H441 = tested on: NCI-H441
Summary of the method: as §1

NCI-H2405 = tested on: NCI-H2405
Summary of the method: as §1

RERF-LC-KJ = tested on: RERF-LC-KJ
Summary of the method: as §1

NCI-H1650 = tested on: NCI-H1650
Summary of the method: as §1

NCI-H1563 = tested on: NCI-H1563
Summary of the method: as §1

NCI-H2347 = tested on: NCI-H2347
Summary of the method: as §1

NCI-H1993 = tested on: NCI-H1993
Summary of the method: as §1

COR-L23 = tested on: COR-L23
Summary of the method: as §1

201T = tested on: 201T
Summary of the method: as §1

NCI-H2085 = tested on: NCI-H2085
Summary of the method: as §1

EPLC-272H = tested on: EPLC-272H
Summary of the method: as §1

LOU-NH91 = tested on: LOU-NH91
Summary of the method: as §1

NCI-H3122 = tested on: NCI-H3122
Summary of the method: as §1

NCI-H1734 = tested on: NCI-H1734
Summary of the method: as §1

HCC-44 = tested on: HCC-44
Summary of the method: as §1

With Oc1nc(-c2ccc(C(F)(F)F)cc2)nc2c1CSCC2 [XAV939] + N=C(N)NC(=N)NCCc1ccccc1 [Phenformin] (partner 250 µM) the relative viability (NCI-H1793; first compound 0.08 µM) was 0.495, the relative viability (NCI-H1793; first compound 0.253 µM) was 0.389 and the relative viability (NCI-H1793; first compound 0.8 µM) was 0.302. The relative viability (NCI-H1793; first compound 2.53 µM) was 0.354, the relative viability (SW 900; first compound 0.08 µM) was 0.657 and the relative viability (SW 900; first compound 0.253 µM) was 0.49. It also gave a relative viability (SW 900; first compound 0.8 µM) of 0.537, a relative viability (SW 900; first compound 2.53 µM) of 0.419 and a relative viability (NCI-H520; first compound 0.08 µM) of 0.58. The relative viability (NCI-H520; first compound 0.253 µM) was 0.51, the relative viability (NCI-H520; first compound 0.8 µM) was 0.526 and the relative viability (NCI-H520; first compound 2.53 µM) was 0.401. For the same compound, the relative viability (H3255; first compound 0.08 µM) was 0.415, the relative viability (H3255; first compound 0.253 µM) was 0.397 and the relative viability (H3255; first compound 0.8 µM) was 0.381. The relative viability (H3255; first compound 2.53 µM) was 0.375, the relative viability (NCI-H2170; first compound 0.08 µM) was 0.393 and the relative viability (NCI-H2170; first compound 0.253 µM) was 0.394. The relative viability (NCI-H2170; first compound 0.8 µM) was 0.413, the relative viability (NCI-H2170; first compound 2.53 µM) was 0.362 and the relative viability (NCI-H2023; first compound 0.08 µM) was 0.424. It also gave a relative viability (NCI-H2023; first compound 0.253 µM) of 0.391, a relative viability (NCI-H2023; first compound 0.8 µM) of 0.365 and a relative viability (NCI-H2023; first compound 2.53 µM) of 0.402. It also gave a relative viability (PC-14; first compound 0.08 µM) of 0.69, a relative viability (PC-14; first compound 0.253 µM) of 0.592 and a relative viability (PC-14; first compound 0.8 µM) of 0.629. It also gave a relative viability (PC-14; first compound 2.53 µM) of 0.555, a relative viability (NCI-H647; first compound 0.08 µM) of 0.553 and a relative viability (NCI-H647; first compound 0.253 µM) of 0.438. The relative viability (NCI-H647; first compound 0.8 µM) was 0.61, the relative viability (NCI-H647; first compound 2.53 µM) was 0.28 and the relative viability (NCI-H441; first compound 0.08 µM) was 0.856. The relative viability (NCI-H441; first compound 0.253 µM) was 0.861, the relative viability (NCI-H441; first compound 0.8 µM) was 1 and the relative viability (NCI-H441; first compound 2.53 µM) was 0.851. For the same compound, the relative viability (NCI-H2405; first compound 0.08 µM) was 0.373, the relative viability (NCI-H2405; first compound 0.253 µM) was 0.399 and the relative viability (NCI-H2405; first compound 0.8 µM) was 0.363. It also gave a relative viability (NCI-H2405; first compound 2.53 µM) of 0.413, a relative viability (RERF-LC-KJ; first compound 0.08 µM) of 0.485 and a relative viability (RERF-LC-KJ; first compound 0.253 µM) of 0.425. For the same compound, the relative viability (RERF-LC-KJ; first compound 0.8 µM) was 0.442, the relative viability (RERF-LC-KJ; first compound 2.53 µM) was 0.364 and the relative viability (NCI-H1650; first compound 0.08 µM) was 0.499. For the same compound, the relative viability (NCI-H1650; first compound 0.253 µM) was 0.456, the relative viability (NCI-H1650; first compound 0.8 µM) was 0.373 and the relative viability (NCI-H1650; first compound 2.53 µM) was 0.348. The relative viability (NCI-H1563; first compound 0.08 µM) was 0.616, the relative viability (NCI-H1563; first compound 0.253 µM) was 0.681 and the relative viability (NCI-H1563; first compound 0.8 µM) was 0.594. For the same compound, the relative viability (NCI-H1563; first compound 2.53 µM) was 0.636, the relative viability (NCI-H2347; first compound 0.08 µM) was 0.396 and the relative viability (NCI-H2347; first compound 2.53 µM) was 0.338. For the same compound, the relative viability (NCI-H1993; first compound 0.08 µM) was 0.479, the relative viability (NCI-H1993; first compound 0.253 µM) was 0.526 and the relative viability (NCI-H1993; first compound 0.8 µM) was 0.524. It also gave a relative viability (NCI-H1993; first compound 2.53 µM) of 0.511, a relative viability (COR-L23; first compound 0.08 µM) of 0.438 and a relative viability (COR-L23; first compound 0.253 µM) of 0.44. For the same compound, the relative viability (COR-L23; first compound 0.8 µM) was 0.466, the relative viability (COR-L23; first compound 2.53 µM) was 0.405 and the relative viability (201T; first compound 0.08 µM) was 0.475. It also gave a relative viability (201T; first compound 0.253 µM) of 0.421, a relative viability (201T; first compound 0.8 µM) of 0.364 and a relative viability (201T; first compound 2.53 µM) of 0.421. The relative viability (NCI-H2085; first compound 0.08 µM) was 0.741, the relative viability (NCI-H2085; first compound 0.253 µM) was 0.686 and the relative viability (NCI-H2085; first compound 0.8 µM) was 0.737. For the same compound, the relative viability (NCI-H2085; first compound 2.53 µM) was 0.653, the relative viability (EPLC-272H; first compound 0.08 µM) was 0.311 and the relative viability (EPLC-272H; first compound 0.253 µM) was 0.316. The relative viability (EPLC-272H; first compound 0.8 µM) was 0.308, the relative viability (EPLC-272H; first compound 2.53 µM) was 0.325 and the relative viability (LOU-NH91; first compound 0.08 µM) was 0.672. For the same compound, the relative viability (LOU-NH91; first compound 0.253 µM) was 0.627, the relative viability (LOU-NH91; first compound 0.8 µM) was 0.702 and the relative viability (LOU-NH91; first compound 2.53 µM) was 0.618. It also gave a relative viability (NCI-H3122; first compound 0.08 µM) of 0.38, a relative viability (NCI-H3122; first compound 0.253 µM) of 0.336 and a relative viability (NCI-H3122; first compound 0.8 µM) of 0.338. It also gave a relative viability (NCI-H3122; first compound 2.53 µM) of 0.39, a relative viability (NCI-H1734; first compound 0.08 µM) of 0.44 and a relative viability (NCI-H1734; first compound 0.253 µM) of 0.386. For the same compound, the relative viability (NCI-H1734; first compound 0.8 µM) was 0.337, the relative viability (NCI-H1734; first compound 2.53 µM) was 0.393 and the relative viability (HCC-44; first compound 0.08 µM) was 0.239. For the same compound, the relative viability (HCC-44; first compound 0.253 µM) was 0.219, the relative viability (HCC-44; first compound 0.8 µM) was 0.221 and the relative viability (HCC-44; first compound 2.53 µM) was 0.259.
